Data from BindingDB's records for doi:10.1046/j.1471-4159.1997.69051810.x (Janssen Research Foundation, 1997).

Tests used:
[1] = target: 5-hydroxytryptamine receptor 4 (Cavia porcellus, UniProt O70528)
[2] = target: 5-hydroxytryptamine receptor 4 (Homo sapiens, UniProt Q13639)
Chain of 5-hydroxytryptamine receptor 4 (Homo sapiens, UniProt Q13639) (Q13639 whole entry): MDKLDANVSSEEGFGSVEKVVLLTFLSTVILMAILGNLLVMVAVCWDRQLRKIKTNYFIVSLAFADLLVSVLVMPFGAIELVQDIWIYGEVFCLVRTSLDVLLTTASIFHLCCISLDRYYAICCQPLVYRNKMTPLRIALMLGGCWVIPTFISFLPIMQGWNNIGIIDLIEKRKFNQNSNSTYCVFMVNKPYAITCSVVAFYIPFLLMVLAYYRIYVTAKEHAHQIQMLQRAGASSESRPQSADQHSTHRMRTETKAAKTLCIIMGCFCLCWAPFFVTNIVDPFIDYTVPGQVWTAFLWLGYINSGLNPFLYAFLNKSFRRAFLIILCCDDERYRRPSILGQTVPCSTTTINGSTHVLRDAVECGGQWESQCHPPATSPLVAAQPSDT

Chain of 5-hydroxytryptamine receptor 4 (Cavia porcellus, UniProt O70528) (O70528 whole entry): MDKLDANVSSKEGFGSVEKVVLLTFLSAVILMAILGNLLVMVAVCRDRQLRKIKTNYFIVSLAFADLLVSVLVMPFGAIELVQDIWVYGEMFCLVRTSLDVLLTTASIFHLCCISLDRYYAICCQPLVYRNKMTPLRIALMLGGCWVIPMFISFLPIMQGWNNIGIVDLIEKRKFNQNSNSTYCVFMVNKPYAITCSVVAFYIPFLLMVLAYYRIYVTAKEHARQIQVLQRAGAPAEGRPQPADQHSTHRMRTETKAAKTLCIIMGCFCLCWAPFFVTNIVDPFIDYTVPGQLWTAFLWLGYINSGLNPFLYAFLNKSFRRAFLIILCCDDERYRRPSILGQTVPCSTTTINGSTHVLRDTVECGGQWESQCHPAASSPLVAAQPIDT

Cn1cc(C(=O)OCC2CCN(CCNS(C)(=O)=O)CC2)c2ccccc21 [GR 113808]
Ki [1]: 0.39 nM
Ki [2]: 0.25 nM

COc1ccc2[nH]cc(CCN)c2c1 [tryptamine, 5-Methoxy]
Ki [1]: 251 nM
Ki [2]: 1000 nM

CCCCN1CCC(COC(=O)c2cc(Cl)c(N)c3c2OCCO3)CC1 [CAS_121881]
Ki [1]: 0.07 nM
Ki [2]: 0.1 nM

CN1C2CCC1CC(OC(=O)c1c[nH]c3ccccc13)C2 (centres undefined)
Ki [1]: 200 nM

COc1[nH]c2ccc(F)cc2c1C(=O)OCC1CCN(CCNS(C)(=O)=O)CC1 [GR-125487]
Ki [1]: 0.19 nM
Ki [2]: 0.15 nM
